The text below walks through data of paper PMC12047801, “Disrupting the OTUD4-USP7 deubiquitinase complex to suppress herpesvirus replication: a novel antiviral strategy” (PLOS Pathogens, 2025).

Where a SMILES comes first, the peptide text is derived from it.

In one test the test system is KSHV lytic replication. The settings on record: cited from earlier work. From the text: In KSHV-associated cancers, such as Kaposi’s sarcoma (KS), tumor cells predominantly display latent viral infection, while spontaneous reactivation takes place in only 1–3% of infected cells. […] Despite the low percentage of lytic cells, lytic replication plays a critical role in KS pathogenesis. Firstly, the production and release of infectious KSHV particles sustain the latently infected cell population by compensating for episomal loss duri ... || KSHV is the etiological agent of Kaposi’s sarcoma (KS) and primary effusion lymphoma (PEL), and contributes to other malignancies such as multicentric Castleman’s disease (MCD). […] Therefore, KSHV antiviral treatments, including those aimed at inhibiting lytic replication, are actively being developed. […] MMV1645152, identified from the Medicines for Malaria Venture (MMV) Pandemi ...

Test [1] relates to KSHV lytic reactivation in SLK.iBAC-GFP cells. It counts as cell-based. How it is done: (A) Graphical illustration showing the rationale underlying our peptide design. (B) Surface Plasmon Resonance (SPR) analysis assessing the interaction of the USP7-TRAF domain with the designed peptides p2 and p8. (C) SLK.iBAC-GFP cells were induced with doxycycline (Dox, 1 μg/mL) and sodium butyrate (0.5 mM) in the presence of the Tat fusion peptides (100 μM). All the peptides were fused to an N-terminal Tat47-57 peptide ([…]) via a flexible GG linker. The supernatants containing infectious virions were collected 48 h post-induction and used to infect HEK293T cells. KSHV infectious units were calculated based on the percentage of GFP-positive cells determined by flow cytometry. Data are mean ± s.d. of N = 3 independent biological replicates. (D) SLK.iBAC-GFP cells were induced with doxycycline (Dox, 1 μg/mL) and sodium butyrate (0.5 mM) in the presence of increasing amount of p8 (0, 10, 50, 100 μM). KSHV infectious units were determined 48 h post-induction. Data are mean ± s.d. of N = 3 independent biological replicates. […] Data are mean ± s.d. of N = 3 independent biological replicates. […] Cell viability was assessed by measuring ATP levels 48 h post-induction. Data are mean ± s.d. of N = 3 independent biological replicates.
Peptides p1 to p12 (S1A Fig) were synthesized by Sangon Biotech (Shanghai, China) with 95% purity. The Tat-fused peptides in Fig 1C consisted of the corresponding peptides conjugated to the Tat47-57 peptide ([…]) and two glycine linker residues (QYAOBIO, Suzhou, China). The peptides p8-DRI (nssqsasqnvpprrrqrrkkrGy) and p2-DRI (iesndedavepprrrqrrkkrGy) were synthesized using D-amino acids in a retro-reversed sequence with 95% purity (QYAOBIO, Suzhou, China). The peptide p8-m ([…]) was synthesized with 95% purity (QYAOBIO, Suzhou, China). All the peptides were acetylated at the N-terminus and amidated at the C-terminus to mimic the native peptide structure. The peptides were dissolved in PBS to prepare 1 mM stock solutions for in vitro experiments and 5 mg/ml stock solutions for in vivo experiments.
SLK.iBAC-GFP cells were treated with Dox (1 μg/ml) and sodium butyrate (0.5 mM) to induce lytic reactivation in the presence of indicated peptides (100 μM). The supernatants were collected at the specified time points and used to infect HEK293T cells at appropriate dilutions. The infected cells were collected, fixed, and analyzed by flow cytometry 24 h post-infection. FlowJo 10.0 software was used to analyze the data, and KSHV infectious units were quantified based on the percentage of GFP-positive cells.

A further test concerns the target T1, USP7-TRAF domain (Homo sapiens, UniProt Q93009).
T1 construct: The TRAF domain of human and murine USP7 (1-208 aa) was subcloned into pGEX-6p-1; GST (N); made in house; host or cells: E. coli BL21 (DE3)
The test is described as follows: Surface plasmon resonance (SPR) analysis of peptide binding to USP7-TRAF.

For test [2], the system named is interaction between OTUD4 and USP7-TRAF. The test is described as follows: GST pull-down competition assay, human USP7-TRAF and FLAG-OTUD4. It counts as binding. The settings on record: 100 μM, 4 h.

T1 sequence (Q93009 1-208): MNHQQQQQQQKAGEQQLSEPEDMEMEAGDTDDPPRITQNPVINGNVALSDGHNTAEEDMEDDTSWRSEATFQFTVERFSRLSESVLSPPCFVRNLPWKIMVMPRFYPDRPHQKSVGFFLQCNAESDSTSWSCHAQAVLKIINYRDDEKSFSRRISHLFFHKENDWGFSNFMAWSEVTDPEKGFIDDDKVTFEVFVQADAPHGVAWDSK

On to `Nc1nc(O)c(Br)c(-c2cccc(Cl)c2)n1` [MMV1645152], for which, in the test with KSHV lytic replication, the “Inhibition of KSHV lytic replication (in words)” value is “effectively blocking KSHV lytic replication”.
Broadly, the IC50 is the concentration that inhibits the measured activity by half. With `CC[C@@H](C)[C@@H](NC(C)=O)C(=O)N[C@H](CCC(=O)O)C(=O)N[C@H](CO)C(=O)N[C@H](CC(N)=O)C(=O)N[C@H](CC(=O)O)C(=O)N[C@H](CCC(=O)O)C(=O)N[C@H](CC(=O)O)C(=O)N[C@H](C)C(=O)N[C@@H](C(=O)N[C@H](CCC(=O)O)C(=O)N1CCC[C@@H]1C(=O)N1CCC[C@@H]1C(=O)N[C@H](CCCNC(=N)N)C(=O)N[C@H](CCCNC(=N)N)C(=O)N[C@H](CCCNC(=N)N)C(=O)N[C@H](CCC(N)=O)C(=O)N[C@H](CCCNC(=N)N)C(=O)N[C@H](CCCNC(=N)N)C(=O)N[C@H](CCCCN)C(=O)N[C@H](CCCCN)C(=O)N[C@H](CCCNC(=N)N)C(=O)NCC(=O)N[C@H](Cc1ccc(O)cc1)C(N)=O)C(C)C` [p2-DRI] (HELM PEPTIDE1{[ac].[dI].[dE].[dS].[dN].[dD].[dE].[dD].[dA].[dV].[dE].[dP].[dP].[dR].[dR].[dR].[dQ].[dR].[dR].[dK].[dK].[dR].G.[dY].[am]}$$$$V2.0), the IC50 in test [1] (SLK.iBAC-GFP cells, Dox + sodium butyrate, mean ± s.d. of N = 3) came to 67.4 ± 34.1 µM.
As to `CCc1cc(-c2n[nH]c(C)c2-c2ccc3c(c2)OCCO3)c(O)cc1O` [CCT018159], the “Inhibition of KSHV lytic replication and virion production (in words)” value in the test on KSHV lytic replication (UAP56 ATPase inhibitor) was “successfully blocks KSHV lytic replication and infectious virion production”.
Consider Ac-YGRKKRRQRRRGGEVADEDNSEI-NH2 [p2], for which the “Binding to the USP7-TRAF domain (in words)” value on USP7-TRAF domain was “specifically bound to the USP7-TRAF domain”. In test [2], the “Disruption of OTUD4/USP7-TRAF interaction (in words)” value is “failed to disrupt the interaction between USP7-TRAF and OTUD4”. Moreover, the “IC50, KSHV lytic reactivation (in words)” value in test [1] (SLK.iBAC-GFP cells, Tat-fused peptide) is recorded as “could not be determined due to its low antiviral activity”. The “Inhibition of KSHV lytic reactivation (in words)” value in test [1] (Tat-fused peptides, 100 μM or dose series, 48 h post-induction) is on record as “no significant inhibition”.
Consider `Cc1c(O)cccc1C(=O)N[C@@H](CSc1ccccc1)[C@H](O)CN1C[C@H]2CCCC[C@H]2C[C@H]1C(=O)NC(C)(C)C` [Nelfinavir], for which, in the test on KSHV lytic replication, the “Inhibition of KSHV virion production (in words)” value is reported as “prevents mature virion production”.
